Test results reported in ChEMBL document CHEMBL1201862, “PubChem BioAssay data set” (2004).
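Protocol summary: plate cells (96-well), add compound at 5 concentrations, incubate 48 h, interpolate endpoints linearly. GI50: concentration for 50% inhibition of growth.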 Activity calls are given as the source filed them. No stated cut-off is given here; in the data, active = GI50 up to about 1.1 µM and inactive = higher.

Key:
Test in all cases: growth of human tumour cells (NCI), 48 h
U-251 = system: U-251
SF-539 = system: SF-539
OVCAR-5 = system: OVCAR-5
T47D = system: T47D
MDA-N = system: MDA-N
KM12 = system: KM12
MDA-MB-435 = system: MDA-MB-435
UACC-257 = system: UACC-257
RPMI-8226 = system: RPMI-8226
SNB-19 = system: SNB-19
OVCAR-3 = system: OVCAR-3
BT-549 = system: BT-549
ACHN = system: ACHN
DU-145 = system: DU-145
SW-620 = system: SW-620
SK-MEL-28 = system: SK-MEL-28
786-0 = system: 786-0
CCRF-CEM = system: CCRF-CEM
OVCAR-4 = system: OVCAR-4
A498 = system: A498

| SMILES | GI50 (U-251) | GI50 (SF-539) | GI50 (OVCAR-5) | GI50 (T47D) | GI50 (MDA-N) | GI50 (KM12) | GI50 (MDA-MB-435) | GI50 (UACC-257) | GI50 (RPMI-8226) | GI50 (SNB-19) | GI50 (OVCAR-3) | GI50 (BT-549) | GI50 (ACHN) | GI50 (DU-145) | GI50 (SW-620) | GI50 (SK-MEL-28) | GI50 (786-0) | GI50 (CCRF-CEM) | GI50 (OVCAR-4) | GI50 (A498) |
| --- | --- | --- | --- | --- | --- | --- | --- | --- | --- | --- | --- | --- | --- | --- | --- | --- | --- | --- | --- | --- |
| CC(NC(=O)C(OC(=O)C(C)NC(=O)OC(C)(C)C)C(C)C)C(=O)OC(C(=O)O)C(C)C (stereo unspecified) | > 100 µM (inactive) | > 100 µM (inactive) | > 100 µM (inactive) | > 100 µM (inactive) | > 100 µM (inactive) | > 100 µM (inactive) | > 100 µM (inactive) | > 100 µM (inactive) | > 100 µM (inactive) | > 100 µM (inactive) | > 100 µM (inactive) | > 100 µM (inactive) | > 100 µM (inactive) | > 100 µM (inactive) | > 100 µM (inactive) | > 100 µM (inactive) | > 100 µM (inactive) | – | – | – |
| CC(C(=O)O)c1ccc(-c2ccccc2)c(F)c1 (stereo unspecified) [FLURBIPROFEN] | > 100 µM (inactive) | > 100 µM (inactive) | > 100 µM (inactive) | > 100 µM (inactive) | > 100 µM (inactive) | > 100 µM (inactive) | > 100 µM (inactive) | > 100 µM (inactive) | > 100 µM (inactive) | > 100 µM (inactive) | – | > 100 µM (inactive) | > 100 µM (inactive) | > 100 µM (inactive) | > 100 µM (inactive) | > 100 µM (inactive) | > 100 µM (inactive) | > 100 µM (inactive) | > 100 µM (inactive) | – |
| COc1ccc2c(c1O)[C@@]13CCCC=C1[C@@H](C2)[N+](C)(C)CC3 | > 100 µM (inactive) | – | > 100 µM (inactive) | > 100 µM (inactive) | > 100 µM (inactive) | > 100 µM (inactive) | > 100 µM (inactive) | 79.1 µM (inactive) | – | > 100 µM (inactive) | 37.2 µM (inactive) | 46.7 µM (inactive) | > 100 µM (inactive) | > 100 µM (inactive) | > 100 µM (inactive) | > 100 µM (inactive) | > 100 µM (inactive) | > 100 µM (inactive) | > 100 µM (inactive) | – |
| O=C(NCc1ccc(Cl)c(Cl)c1)c1nc2ccccc2nc1NCc1ccc(Cl)c(Cl)c1 | > 100 µM (inactive) | > 100 µM (inactive) | > 100 µM (inactive) | > 100 µM (inactive) | > 100 µM (inactive) | > 100 µM (inactive) | > 100 µM (inactive) | > 100 µM (inactive) | – | > 100 µM (inactive) | > 100 µM (inactive) | > 100 µM (inactive) | > 100 µM (inactive) | > 100 µM (inactive) | > 100 µM (inactive) | > 100 µM (inactive) | > 100 µM (inactive) | > 100 µM (inactive) | – | > 100 µM (inactive) |
| COC(=O)[C@]12C3=C(O)C(=O)C[C@H]1OC[C@H]2C=CC3 | > 100 µM (inactive) | – | > 100 µM (inactive) | > 100 µM (inactive) | > 100 µM (inactive) | > 100 µM (inactive) | > 100 µM (inactive) | > 100 µM (inactive) | > 100 µM (inactive) | > 100 µM (inactive) | > 100 µM (inactive) | > 100 µM (inactive) | > 100 µM (inactive) | > 100 µM (inactive) | 29.2 µM (inactive) | > 100 µM (inactive) | > 100 µM (inactive) | – | > 100 µM (inactive) | > 100 µM (inactive) |
| N=C(N)SCc1nc(-c2ccc(Cl)cc2)no1 | 21.7 µM (inactive) | 15.8 µM (inactive) | 10.3 µM (inactive) | 11.3 µM (inactive) | – | 20.8 µM (inactive) | 12.2 µM (inactive) | 30.5 µM (inactive) | 5.05 µM (inactive) | 38.2 µM (inactive) | 11.9 µM (inactive) | 23.2 µM (inactive) | 13.3 µM (inactive) | 15.7 µM (inactive) | 12.2 µM (inactive) | 16.9 µM (inactive) | 14.3 µM (inactive) | 3.84 µM (inactive) | 14.6 µM (inactive) | 16.8 µM (inactive) |
| CN(N)c1cc(=O)[nH]c(=O)[nH]1 | – | > 100 µM (inactive) | – | > 100 µM (inactive) | > 100 µM (inactive) | > 100 µM (inactive) | – | > 100 µM (inactive) | > 100 µM (inactive) | > 100 µM (inactive) | > 100 µM (inactive) | 0.03 µM (active) | > 100 µM (inactive) | > 100 µM (inactive) | > 100 µM (inactive) | > 100 µM (inactive) | > 100 µM (inactive) | > 100 µM (inactive) | > 100 µM (inactive) | > 100 µM (inactive) |
| Cc1ccc(S(=O)(=O)OCC(=O)O)cc1 | > 100 µM (inactive) | – | > 100 µM (inactive) | > 100 µM (inactive) | > 100 µM (inactive) | – | – | > 100 µM (inactive) | > 100 µM (inactive) | > 100 µM (inactive) | > 100 µM (inactive) | > 100 µM (inactive) | > 100 µM (inactive) | > 100 µM (inactive) | > 100 µM (inactive) | > 100 µM (inactive) | > 100 µM (inactive) | > 100 µM (inactive) | > 100 µM (inactive) | > 100 µM (inactive) |
| C[C@@H]1CC(=O)C[C@@H]2CC[C@H]3[C@@H]4CC[C@H](OC(=O)c5cccc6cc7ccccc7nc56)[C@H]4CC[C@@H]3[C@H]21 | 7.11 µM (inactive) | 16.7 µM (inactive) | 18.8 µM (inactive) | 13.7 µM (inactive) | 13.5 µM (inactive) | 14.3 µM (inactive) | 15.8 µM (inactive) | 14.3 µM (inactive) | – | 17.7 µM (inactive) | 15.2 µM (inactive) | 26.1 µM (inactive) | 15.7 µM (inactive) | 14 µM (inactive) | 17.4 µM (inactive) | 28.6 µM (inactive) | 11.4 µM (inactive) | – | 13.6 µM (inactive) | – |
| COc1ccc(CC2C(=O)NC(C)C(=O)N(C)C3C(=O)N(C)C(Cc4ccc(O)c(c4)Oc4ccc(cc4)C3O)C(=O)NC(C)C(=O)NC(C)C(=O)N2C)cc1.COc1ccc(CC2C(=O)NC(C)C(=O)N(C)C3Cc4ccc(cc4)Oc4cc(ccc4O)CC(C(=O)NC(C)C(=O)NC(C)C(=O)N2C)N(C)C3=O)cc1 (stereo unspecified) | 0.0012 µM (active) | 0.00102 µM (active) | 0.00995 µM (active) | 0.00446 µM (active) | – | 0.0024 µM (active) | 0.004 µM (active) | 0.00322 µM (active) | 0.0019 µM (active) | 0.000638 µM (active) | 0.01 µM (active) | 0.00321 µM (active) | 0.0995 µM (active) | 0.00364 µM (active) | 0.00718 µM (active) | 0.00344 µM (active) | 0.00771 µM (active) | 0.00177 µM (active) | 0.0127 µM (active) | 0.0282 µM (active) |
| OCC1=C[C@@](COCc2ccccc2)(OCc2ccccc2)[C@@H](OCc2ccccc2)[C@@H]1OCc1ccccc1 | 6.59 µM (inactive) | – | 26.3 µM (inactive) | 19.3 µM (inactive) | 17.2 µM (inactive) | 15.9 µM (inactive) | 6.64 µM (inactive) | 22.6 µM (inactive) | 2.49 µM (inactive) | 42.8 µM (inactive) | 11.7 µM (inactive) | 24.7 µM (inactive) | 22.9 µM (inactive) | 37.6 µM (inactive) | 18.5 µM (inactive) | 35.3 µM (inactive) | 20.7 µM (inactive) | 2.81 µM (inactive) | 21.4 µM (inactive) | 10.9 µM (inactive) |
| O=[N+]([O-])c1ccc(Cl)cc1N/N=C/c1cccc2cccnc12 | 79.1 µM (inactive) | 95.1 µM (inactive) | – | > 100 µM (inactive) | > 100 µM (inactive) | > 100 µM (inactive) | > 100 µM (inactive) | > 100 µM (inactive) | 20.3 µM (inactive) | 31.3 µM (inactive) | > 100 µM (inactive) | > 100 µM (inactive) | > 100 µM (inactive) | > 100 µM (inactive) | 96.6 µM (inactive) | > 100 µM (inactive) | > 100 µM (inactive) | 34.8 µM (inactive) | 92.7 µM (inactive) | – |
| CNC(=O)CNC(=O)N(C[C@@H]1CCCN1C(=O)[C@H](CC(C)C)NC(=O)OC(C)(C)C)C(C)C | > 100 µM (inactive) | – | > 100 µM (inactive) | > 100 µM (inactive) | > 100 µM (inactive) | > 100 µM (inactive) | > 100 µM (inactive) | – | > 100 µM (inactive) | > 100 µM (inactive) | > 100 µM (inactive) | > 100 µM (inactive) | > 100 µM (inactive) | > 100 µM (inactive) | > 100 µM (inactive) | > 100 µM (inactive) | > 100 µM (inactive) | > 100 µM (inactive) | > 100 µM (inactive) | > 100 µM (inactive) |
| O=[N+]([O-])c1cccc(/N=N/c2c(O)c(S(=O)(=O)O)cc3cc(S(=O)(=O)O)ccc23)c1 | > 100 µM (inactive) | > 100 µM (inactive) | > 100 µM (inactive) | > 100 µM (inactive) | > 100 µM (inactive) | > 100 µM (inactive) | > 100 µM (inactive) | > 100 µM (inactive) | – | > 100 µM (inactive) | > 100 µM (inactive) | > 100 µM (inactive) | > 100 µM (inactive) | > 100 µM (inactive) | > 100 µM (inactive) | > 100 µM (inactive) | > 100 µM (inactive) | > 100 µM (inactive) | > 100 µM (inactive) | > 100 µM (inactive) |
